Consider 32 compounds from patent US12492183B2, “Tetrahydroquinazoline derivatives as selective cytotoxic agents” (Merck Sharp & Dohme LLC, priority 2020, dated 2025).

Each structure is given as a SMILES string.

The subject of the assay is PBMCs infected with VSV-G pseudotyped HIV virus (VSV-G/pNLG1-P2A-ΔEnv). The assay can be described thus: cells. It is filed as cell-based. To be noted: Homo sapiens, PBMC, read-out: TACK EC50.
Consider `CC(F)(F)[C@@]1(C#CC2CC2)NC(=O)Nc2cc(Cc3ccc(S(N)(=O)=O)cc3)ccc21` (single isomer, unassigned) [Example 20], for which the EC50 came out at 115 nM.

For the compound `CN1C(=O)Nc2cc(Cc3ccnc(N)n3)c(Cl)cc2[C@@]1(C#CC1CC1)C(F)(F)F` (single isomer, unassigned) [Example 30], the EC50 came to 64.7 nM.

With `CN1C(=O)Nc2cc(Cc3ccnc(N)n3)c(F)cc2[C@@]1(C#CC1CC1)C(F)(F)F` (single isomer, unassigned) [Example 40], the EC50 came to 41.6 nM.

Regarding `Cc1nc(C)c(Cc2cc3c(cc2Cl)[C@@](C#CC2CC2)(C(F)(F)F)NC(=O)N3)c(=O)[nH]1` (single isomer, unassigned) [Example 62B], the EC50 was found to be 68.7 nM.

`Cc1ccc(Cc2ccc3c(c2)NC(=O)N[C@]3(C#CC2CC2)C(F)(F)F)c(=O)[nH]1` [Example 1, (S)-4-(cyclopropylethynyl)-7-((6-methyl-2-oxo-1,2-dihydropyridin-3-yl)methyl)-4-(trifluoromethyl)-3,4-dihydroquinazolin-2(1H)-one]: the EC50 is 120 nM.

`Cc1cc[nH]c(=O)c1Cc1ccc2c(c1)NC(=O)N[C@]2(C#CC1CC1)C(F)(F)F` [Example 2, (S)-4-(cyclopropylethynyl)-7-((4-methyl-2-oxo-1,2-dihydropyridin-3-yl)methyl)-4-(trifluoromethyl)-3,4-dihydroquinazolin-2(1H)-one]: the EC50 is 132 nM.

For the compound `O=C1Nc2cc(Cc3ccc[nH]c3=O)ccc2[C@@](C#CC2CC2)(C(F)(F)F)N1` [Example 3, (S)-4-(cyclopropylethynyl)-7-((2-oxo-1,2-dihydropyridin-3-yl)-methyl)-4-(trifluoromethyl)-3,4-dihydroquinazolin-2(1H)-one], the EC50 was determined as 237 nM.

For the compound `Cn1cc(Cc2ccc3c(c2)NC(=O)N[C@]3(C#CC2CC2)C(F)(F)F)ccc1=O` [Example 4, (S)-4-(cyclopropylethynyl)-7-((1-methyl-6-oxo-1,6-dihydropyridin-3-yl)methyl)-4-(trifluoromethyl)-3,4-dihydroquinazolin-2(1H)-one], the EC50 worked out at 148 nM.

For the compound `Cn1ccc(Cc2ccc3c(c2)NC(=O)N[C@]3(C#CC2CC2)C(F)(F)F)cc1=O` [Example 5, (S)-4-(cyclopropylethynyl)-7-((1-methyl-2-oxo-1,2-dihydropyridin-4-yl)methyl)-4-(trifluoromethyl)-3,4-dihydroquinazolin-2(1H)-one], the EC50 came out at 160 nM.

In the case of `NS(=O)(=O)c1ccc(Cc2ccc3c(c2)NC(=O)N[C@]3(C#CC2CC2)C(F)(F)F)c(F)c1` [Example 6, (S)-4-((4-(cyclopropylethynyl)-2-oxo-4-(trifluoromethyl)-1,2,3,4-tetrahydroquinazolin-7-yl)methyl)-3-fluorobenzenesulfonamide], the EC50 was 284 nM.

For `Nc1cc(Cc2ccc3c(c2)NC(=O)N[C@]3(C#CC2CC2)C(F)(F)F)ccc1S(N)(=O)=O` [Example 7], the EC50 worked out at 230 nM.

Consider `NC(=O)c1ccc(Cc2ccc3c(c2)NC(=O)N[C@]3(C#CC2CC2)C(F)(F)F)cc1` [Example 8, (S)-4-((4-(cyclopropylethynyl)-2-oxo-4-(trifluoromethyl)-1,2,3,4-tetrahydroquinazolin-7-yl)meth-yl)benzamide], for which the concentration giving a half-maximal response (EC50) worked out at 262 nM.

Consider `NS(=O)(=O)c1ccc(Cc2ccc3c(c2)NC(=O)N[C@]3(C#CC2CC2)C(F)(F)F)cc1` [Example 9, (S)-4-((4-(cyclopropylethynyl)-2-oxo-4-(trifluoromethyl)-1,2,3,4-tetrahydroquinazolin-7-yl)meth-yl)benzenesulfonamide], for which the EC50 came to 193 nM.

As to `CS(=O)(=O)c1ccc(Cc2cc3c(cc2F)[C@@](C#CC2CC2)(C(F)(F)F)NC(=O)N3)cc1` [Example 10, (S)-4-(cyclopropylethynyl)-6-fluoro-7-(4-(methylsulfonyl)-benzyl)-4-(trifluoromethyl)-3,4-dihydroquinazolin-2(1H)-one], the EC50 worked out at 380 nM.

Turning to `NS(=O)(=O)c1ccc(Cc2cc3c(cc2F)[C@@](C#CC2CC2)(C(F)(F)F)NC(=O)N3)cc1` [Example 11, (S)-4-((4-(cyclopropylethynyl)-6-fluoro-2-oxo-4-(trifluoromethyl)-1,2,3,4-tetrahydroquinazolin-7-yl)methyl)benzenesulfonamide], the concentration for a half-maximal effect (EC50) came out at 257 nM.

`Nc1cc(Cc2ccc3c(c2)NC(=O)N[C@]3(C#CC2CC2)C(F)(F)F)ccn1` [Example 12, (S)-2-amino-4-((4-(cyclopropylethynyl)-2-oxo-4-(trifluoromethyl)-1,2,3,4-tetrahydroquinazolin-7-yl)methyl)pyridin-1-ium 2,2,2-trifluoroacetate]: the EC50 was found to be 132 nM.

For the compound `Nc1cccc(Cc2cc3c(cc2F)[C@@](C#CC2CC2)(C(F)(F)F)NC(=O)N3)n1` [Example 13, (S)-2-amino-6-((4-(cyclopropyl-ethynyl)-6-fluoro-2-oxo-4-(trifluoromethyl)-1,2,3,4-tetra-hydroquinazolin-7-yl)methyl)-pyridin-1-ium 2,2,2-trifluoro-acetate], the EC50 is 130 nM.

In the case of `Nc1cc(Cc2cc3c(cc2F)[C@@](C#CC2CC2)(C(F)(F)F)NC(=O)N3)ccn1` [Example 14, (S)-2-amino-4-((4-(cyclopropyl-ethynyl)-6-fluoro-2-oxo-4-(trifluoromethyl)-1,2,3,4-tetra-hydroquinazolin-7-yl)methyl)-pyridin-1-ium 2,2,2-trifluoro-acetate], the EC50 stood at 121 nM.

With `Nc1ncc(F)c(Cc2ccc3c(c2)NC(=O)N[C@]3(C#CC2CC2)C(F)(F)F)n1` [Example 15, (S)-7-((2-amino-5-fluoropyrimi-din-4-yl)methyl)-4-(cycloprop-ylethynyl)-4-(trifluoromethyl)-3,4-dihydroquinazolin-2(1H)-one], the concentration for a half-maximal effect (EC50) turned out to be 21.4 nM.

Regarding `Cc1ncc(Cc2ccc3c(c2)NC(=O)N[C@]3(C#CC2CC2)C(F)(F)F)c(=O)[nH]1` [Example 16, (S)-4-(cyclopropylethynl)-7-((2-methyl-6-oxo-1,6-dihydropyrimidin-5-yl)methyl)-4-(trifluoromethyl)-3,4-dihydroquinazolin-2(1H)-one], the EC50 is 153 nM.

As to `Cc1nc(C)c(Cc2cc3c(cc2F)[C@@](C#CC2CC2)(C(F)(F)F)NC(=O)N3)c(=O)[nH]1` [Example 17, (S)-4-(cyclopropylethynyl)-7-((2,4-dimethyl-6-oxo-1,6-dihydropyrimidin-5-yl)meth-yl)-6-fluoro-4-(trifluorometh-yl)-3,4-dihydroquinazolin-2(1H)-one], the EC50 is 46 nM.

Turning to `Cc1nc[nH]c(=O)c1Cc1ccc2c(c1)NC(=O)N[C@]2(C#CC1CC1)C(F)(F)F` [Example 18, (S)-4-(cyclopropylethynyl)-7-((4-methyl-6-oxo-1,6-dihydro-pyrimidin-5-yl)methyl)-4-(trifluoromethyl)-3,4-dihydro-quinazolin-2(1H)-one], the EC50 turned out to be 174 nM.

With `Cc1nc(C)c(Cc2ccc3c(c2)NC(=O)N[C@]3(C#CC2CC2)C(F)(F)F)c(=O)[nH]1` [Example 19, (S)-4-(cyclopropylethynyl)-7-((2,4-dimethyl-6-oxo-1,6-dihydropyrimidin-5-yl)meth-yl)-4-(trifluoromethyl)-3,4-dihydroquinazolin-2(1H)-one], the EC50 came to 136 nM.

In the case of `CCN1C(=O)Nc2cc(Cc3c(C)nc(C)[nH]c3=O)ccc2[C@@]1(C#CC1CC1)C(F)(F)F` [Example 21, (S)-4-(cyclopropylethynyl)-7-((2,4-dimethyl-6-oxo-1,6-dihydropyrimidin-5-yl)methyl)-3-ethyl-4-(trifluoromethyl)-3,4-dihydroquinazolin-2(1H)-one], the EC50 amounted to 139 nM.

Regarding `Cc1nc(C)c(Cc2ccc3c(c2)NC(=O)N(C)[C@]3(C#CC2CC2)C(F)(F)F)c(=O)[nH]1` [Example 22], the EC50 was determined as 230 nM.

For `Cc1nc(C)c(Cc2ccc3c(c2)NC(=O)N(C(C)C)[C@]3(C#CC2CC2)C(F)(F)F)c(=O)[nH]1` [Example 23, (S)-4-(cyclopropylethynyl)-7-((2,4-dimethyl-6-oxo-1,6-dihydropyrimidin-5-l)meth-yl)-3-isopropyl-4-(trifluoro-methyl)-3,4-dihydroquin-azolin-2(1H)-one], the EC50 amounted to 151 nM.

As to `Cc1nc(C)c(Cc2ccc3c(c2)NC(=O)N(CC(F)F)[C@]3(C#CC2CC2)C(F)(F)F)c(=O)[nH]1` [Example 24, (S)-4-(cyclopropylethynyl)-3-(2,2-difluoroethyl)-7-((2,4-dimethyl-6-oxo-1,6-dihydropyrimidin-5-l)meth-yl)-4-(trifluoromethyl)-3,4-dihydroquinazolin-2(1H)-one], the EC50 came out at 146 nM.

With `Nc1nccc(Cc2ccc3c(c2)NC(=O)N[C@]3(C#CC2CC2)C(F)(F)F)n1` [Example 25, (S)-7-((2-aminopyrimidin-4-yl)methyl)-4-(cyclopropylethynyl)-4-(trifluoromethyl)-3,4-dihydroquinazolin-2(1H)-one], the EC50 came out at 45.5 nM.

Take `CC(F)(F)[C@@]1(C#CC2CC2)NC(=O)Nc2cc(Cc3ccnc(N)n3)ccc21` [Example 26, (S)-7-((2-aminopyrimidin-4-yl)methyl)-4-(cyclopropyl-ethynyl)-4-(1,1-difluoroethyl)-3,4-dihydroquinazolin-2(1H)-one]: the EC50 was 31.2 nM.

`Cc1cc(Cc2ccc3c(c2)NC(=O)N[C@]3(C#CC2CC2)C(F)(F)F)nc(N)n1` [Example 27, (S)-7-((2-amino-6-methylpyr-imidin-4-yl)methyl)-4-(cyclo-propylethynyl)-4-(trifluoro-methyl)-3,4-dihydroquin-azolin-2(1H)-one]: the half-maximal effective concentration (EC50) turned out to be 152 nM.

Regarding `Nc1ncc(Cl)c(Cc2ccc3c(c2)NC(=O)N[C@]3(C#CC2CC2)C(F)(F)F)n1` [Example 28, (S)-7-((2-amino-5-chloropyr-imidin-4-yl)methyl)-4-(cyclo-propylethynyl)-4-(trifluoro-methyl)-3,4-dihydroquinazo-lin-2(1H)-one], the EC50 worked out at 144 nM.

For `Nc1ncc(F)c(Cc2cc3c(cc2F)[C@@](C#CC2CC2)(C(F)(F)F)NC(=O)N3)n1` [Example 29, (S)-7-((2-amino-5-fluoropyr-imidin-4-yl)methyl)-4-(cyclo-propylethynyl)-6-fluoro-4-(trifluoromethyl)-3,4-dihydro-quinazolin-2(1H)-one], the EC50 worked out at 49.7 nM.

As a reminder, the EC50 is the concentration giving half of the maximal effect.
